{"source": "patent US8633177B2", "about": "“Nitroxyl (HNO) releasing compounds and uses thereof in treating diseases” (The United States of America, as represented by the …, priority 2010, dated 2014)", "molecular_target": "glyceraldehyde-3-phosphate dehydrogenase (GAPDH) (Homo sapiens, UniProt P04406)", "sequence (P04406 whole entry)": "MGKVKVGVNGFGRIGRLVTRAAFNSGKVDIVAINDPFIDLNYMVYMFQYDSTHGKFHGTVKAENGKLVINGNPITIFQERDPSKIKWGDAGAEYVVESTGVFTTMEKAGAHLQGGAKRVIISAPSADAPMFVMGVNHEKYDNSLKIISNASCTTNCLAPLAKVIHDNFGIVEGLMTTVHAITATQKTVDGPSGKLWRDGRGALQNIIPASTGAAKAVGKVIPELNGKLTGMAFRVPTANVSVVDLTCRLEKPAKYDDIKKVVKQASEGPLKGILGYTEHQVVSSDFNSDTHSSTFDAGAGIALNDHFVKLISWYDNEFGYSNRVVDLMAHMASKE", "test": "GAPDH activity in A549 cells (KDalert)", "assay_type": "cell-based", "parameters": "GAPDH activity in A549 cells at different time points; endogenous in cells; host or cells: A549", "protocol": "In an effort to decipher the mechanism of action of compounds 4 and 8, their effect on glyceraldehyde-3-phosphate dehydrogenase (GAPDH) activity was measured. GAPDH is a glycolytic enzyme which reversibly catalyzes the oxidation of D-glyceraldehyde-3-phosphate to 1,3-diphosphoglycerate. This method utilizes the conversion of NAD^+ to NADH by GAPDH in the presence of glyceraldehydes-3-phosphate and phosphate, which can be measured at an excitation of 560 nm and emission of 590 nm.\nCells were plated at a concentration of 30,000 cells per well and grown overnight. Then they were treated with 100 μM IPA/NO-aspirin and DEA/NO-aspirin for 1, 3, and 6 h followed by which 200 μL of KDalert lysis buffer was added to each well. The plate was incubated at 4° C. for 20 min to lyse the cells. Then 10 μL of cell lysate was transferred to a clean 96 well plate and 90 μL of KDalert mastermix was added to each well and fluorescence was measured at excitation of […]. […] It is also a critical glycolytic enzyme that can play an important role in cancer therapy as solid tumors are known to utilize glycolytic pathways even during normoxia to meet energy requirements (Gatenby et al., Nat. Rev. Cancer, 4(11):891099 (2004)). Thus, inhibition of GAPDH can diminish the […] of tumor cells."}
{"smiles": "CC(=O)Oc1ccccc1C(=O)OCON=[N+]([O-])NC(C)C", "note": "[IPA/NO-aspirin, O^2-(Acetylsalicyloyloxymethyl)-1-(N-isopropylamino)-diazen-1-ium-1,2-diolate]", "values": [{"measurement": "GAPDH Activity", "result": "inhibition of GAPDH activity at micro-molar concentrations"}]}
